What was measured:
[1] = target: T1, human orexin 2 receptor (Homo sapiens, UniProt O43614); assay: Assay B: in vitro testing of OX2R potency, OX2R IP1; type: cell-based; conditions: Table 4a; 0.5 nM Orexin A
T1 construct: CHO-K1 cells stably expressing the full-length human orexin 2 receptor and the aequorin photoprotein; expressed in transfected cells; host or cells: CHO-K1 (CHO-K1/hOx2)
T1 sequence (O43614 1-444): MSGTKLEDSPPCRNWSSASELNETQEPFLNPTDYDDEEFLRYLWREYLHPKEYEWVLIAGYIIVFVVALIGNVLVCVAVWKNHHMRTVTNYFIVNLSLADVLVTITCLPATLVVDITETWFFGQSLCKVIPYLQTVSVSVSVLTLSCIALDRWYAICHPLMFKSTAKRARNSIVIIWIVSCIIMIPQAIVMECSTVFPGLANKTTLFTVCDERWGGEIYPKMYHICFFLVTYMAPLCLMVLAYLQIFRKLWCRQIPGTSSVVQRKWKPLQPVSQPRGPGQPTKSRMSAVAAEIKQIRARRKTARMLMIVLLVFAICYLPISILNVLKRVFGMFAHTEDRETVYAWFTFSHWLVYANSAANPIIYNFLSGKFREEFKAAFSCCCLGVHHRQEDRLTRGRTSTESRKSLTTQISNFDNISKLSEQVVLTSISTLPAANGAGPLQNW
Source text: Activation of the orexin receptors expressed in cell lines results in an increase in intracellular IP3 concentration. IP1, a downstream metabolite of IP3, accumulates in cells following receptor activation and is stable in the presence of LiCl. Using Homogeneous Time-Resolved Fluorescence technology with Lumi4-Tb cryptate (commercially available from Cisbio Bioassay) and a suitable fluorescence plate reader. […] Chem. Genomics 2009, 3, 22-32. This technique is used to characterize pharmacological modification of the orexin receptors.
B. In Vitro Testing of OX2R Potency: OX2R IP1
IP1 measurements are performed in CHO-K1 cells stably expressing the full-length human orexin 2 receptor and the aequorin photoprotein. Cells are cultivated in Ham's nutrient mixture F12 medium with 10% fetal calf serum, in a 37° C., 95% humidity and 5% CO2 incubator. The CHO-K1/hOx2 cell mass is expanded to larger cell numbers. The cells are obtained as frozen cells in cryo-vials and stored until use at −150° C. The viability of the cells after thawing is >90%. In preparation for the assay, 24 hours before the assay, the cells are thawed at 37° C. and immediately diluted with cell culture medium. After centrifugation, the cell pellet is re-suspended in medium and then distributed into the assay plates with a density of 5000 cells/25 μL per well. The plates are incubated for one hour at room temperature to reduce edge effects before they are incubated for 24 hours at 37° C./5% CO2. Compounds are prepared by a 8-point serial dilution in DMSO and a final dilution step into assay buffer (HBSS with 20 mM HEPES, 0.1% BSA and 50 mM LiCl, pH 7.4) to ensure a final DMSO concentration of 1% in the assay. On the day of the assay, cells in the plate are washed twice with 60 μL assay buffer (20 μL buffer remained in the wells after washing), followed by adding 5 μL per well of compounds diluted in assay buffer. After 15 minutes of incubation at room temperature 5 μL per well of Orexin A peptide (final concentration: 0.5 nM) dissolved in assay buffer is added to the assay plate. The assay plate is incubated for 60 minutes at 37° C. Then 5 μL per well of Anti-IP1-Cryptate Tb solution and 5 μL per well of IP1-d2 dilution are added to all well of the plate and the plate is incubated for a further 60 minutes light protected at room temperature. The emission at 615 nm and 665 nm (Excitation wavelength: 320 nm) are measured using an EnVision reader (PerkinElmer). The ratio between the emission at 665 nm and 615 is calculated by the reader.
8-point four parametric non-linear curve fitting and determination of IC50 values and Hill slopes is performed using a regular analysis software e.g. AssayExplorer (Accelrys). In order to establish an agonist concentration independent parameter, Kb values are calculated using the following equation: IC50/((2+(A/EC50)^n)^1/n−1) (with A=concentration agonist, EC50=EC50 agonist, n=Hill slope agonist) (see P. Leff, I. G. Dougall, Trends Pharmacol. Sci. 1993, 14(4), 110-112).
Kb values from Assay A (OX1R) and Assay B (OX2R) can then provide a selectivity ratio which is independent of the agonist (Orexin A) concentration.

[2] = target: T2, human Orexin 1 receptor (Homo sapiens, UniProt O43613); assay: Assay A: in vitro testing of OX1R potency, OX1R IP1; type: cell-based; conditions: for Kb: Table 4a, 50 nM Orexin A
T2 construct: CHO-K1 cells stably expressing the full-length human Orexin 1 receptor and the aequorin photoprotein; expressed in transfected cells; host or cells: CHO-K1 (CHO-K1/hOx1)
T2 sequence (O43613 1-425): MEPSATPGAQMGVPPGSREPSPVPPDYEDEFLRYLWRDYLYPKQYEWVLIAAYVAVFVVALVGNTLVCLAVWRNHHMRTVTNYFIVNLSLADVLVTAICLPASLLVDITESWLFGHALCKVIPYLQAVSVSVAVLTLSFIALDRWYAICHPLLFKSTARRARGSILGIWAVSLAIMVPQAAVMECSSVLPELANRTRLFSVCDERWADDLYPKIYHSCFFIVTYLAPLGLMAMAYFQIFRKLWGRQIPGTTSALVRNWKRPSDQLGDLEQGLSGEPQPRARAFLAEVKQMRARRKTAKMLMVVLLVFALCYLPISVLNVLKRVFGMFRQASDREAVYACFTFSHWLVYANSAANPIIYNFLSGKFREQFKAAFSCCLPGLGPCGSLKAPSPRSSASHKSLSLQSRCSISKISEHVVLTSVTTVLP

[3] = Assay D: assessment of log P; type: physicochemical
Description: The assay was performed following the description by S. F. Donovan and M. C. Pescatore in J. Chromatogr. A 952 (2002) 47-61.

[4] = target: T3, human MDR1 P-gp (Homo sapiens, UniProt P08183); assay: Assay C: efflux in MDCK cells transfected with the human MDR1 gene; type: in vitro ADME; conditions: MDCK-MDR1 cell monolayers, pH 7.4, 37° C., read-out: MDCK efflux ratio (BA/AB)
T3 construct: expressed in transfected cells; host or cells: MDCK (MDCK-MDR1)
Description: C. Assessment of Efflux in Madin-Darby Canine Kidney (MDCK) Cells Transfected with the Human MDR1 Gene
Apparent permeability coefficients (PE) of the compounds across the MDCK-MDR1 cell monolayers are measured (pH 7.4, 37° C.) in apical-to-basal (AB) and basal-to-apical (BA) transport direction. AB permeability (PEAB) represents drug absorption from the blood into the brain and BA permeability (PEBA) drug efflux from the brain back into the blood via both passive permeability as well as active transport mechanisms mediated by efflux and uptake transporters that are expressed on the MDCK-MDR1 cells, predominantly by the overexpressed human MDR1 P-gp. The compounds are assigned to permeability/absorption classes by comparison of the AB permeabilities with the AB permeabilities of reference compounds with known in vitro permeability and oral absorption in the human. Identical or similar permeabilities in both transport directions indicate passive permeation, vectorial permeability points to additional active transport mechanisms. Higher PEBA than PEAB indicates the involvement of active efflux mediated by MDR1 P-gp. Active transport is concentration-dependently saturable.
MDCK-MDR1 cells (1-2×10e5 cells/1 cm2 area) are seeded on filter inserts (Costar transwell polycarbonate or PET filters, 0.4 μm pore size) and cultured (DMEM) for 7 days. Subsequently, the MDR1 expression is boosted by culturing the cells with 5 mM sodium butyrate in full medium for 2 days. Compounds are dissolved in appropriate solvent (like DMSO, 1-20 mM stock solutions). Stock solutions are diluted with HTP-4 buffer (128.13 mM NaCl, 5.36 mM KCl, 1 mM MgSO4, 1.8 mM CaCl2, 4.17 mM NaHCO3, 1.19 mM Na2HPO4×7H2O, 0.41 mM NaH2PO4—H2O, 15 mM HEPES, 20 mM glucose, 0.25% BSA, pH 7.4) to prepare the transport solutions (0.1-300 μM compound, final DMSO<=0.5%). The transport solution (TL) is applied to the apical or basolateral donor side for measuring A-B or B-A permeability (3 filter replicates), respectively. The receiver side contains the same buffer as the donor side. Samples are collected at the start and end of experiment from the donor and at various time intervals for up to 2 hours also from the receiver side for concentration measurement by H PLC-MS/MS or scintillation counting. Sampled receiver volumes are replaced with fresh receiver solution.

T3 sequence (P08183 whole entry): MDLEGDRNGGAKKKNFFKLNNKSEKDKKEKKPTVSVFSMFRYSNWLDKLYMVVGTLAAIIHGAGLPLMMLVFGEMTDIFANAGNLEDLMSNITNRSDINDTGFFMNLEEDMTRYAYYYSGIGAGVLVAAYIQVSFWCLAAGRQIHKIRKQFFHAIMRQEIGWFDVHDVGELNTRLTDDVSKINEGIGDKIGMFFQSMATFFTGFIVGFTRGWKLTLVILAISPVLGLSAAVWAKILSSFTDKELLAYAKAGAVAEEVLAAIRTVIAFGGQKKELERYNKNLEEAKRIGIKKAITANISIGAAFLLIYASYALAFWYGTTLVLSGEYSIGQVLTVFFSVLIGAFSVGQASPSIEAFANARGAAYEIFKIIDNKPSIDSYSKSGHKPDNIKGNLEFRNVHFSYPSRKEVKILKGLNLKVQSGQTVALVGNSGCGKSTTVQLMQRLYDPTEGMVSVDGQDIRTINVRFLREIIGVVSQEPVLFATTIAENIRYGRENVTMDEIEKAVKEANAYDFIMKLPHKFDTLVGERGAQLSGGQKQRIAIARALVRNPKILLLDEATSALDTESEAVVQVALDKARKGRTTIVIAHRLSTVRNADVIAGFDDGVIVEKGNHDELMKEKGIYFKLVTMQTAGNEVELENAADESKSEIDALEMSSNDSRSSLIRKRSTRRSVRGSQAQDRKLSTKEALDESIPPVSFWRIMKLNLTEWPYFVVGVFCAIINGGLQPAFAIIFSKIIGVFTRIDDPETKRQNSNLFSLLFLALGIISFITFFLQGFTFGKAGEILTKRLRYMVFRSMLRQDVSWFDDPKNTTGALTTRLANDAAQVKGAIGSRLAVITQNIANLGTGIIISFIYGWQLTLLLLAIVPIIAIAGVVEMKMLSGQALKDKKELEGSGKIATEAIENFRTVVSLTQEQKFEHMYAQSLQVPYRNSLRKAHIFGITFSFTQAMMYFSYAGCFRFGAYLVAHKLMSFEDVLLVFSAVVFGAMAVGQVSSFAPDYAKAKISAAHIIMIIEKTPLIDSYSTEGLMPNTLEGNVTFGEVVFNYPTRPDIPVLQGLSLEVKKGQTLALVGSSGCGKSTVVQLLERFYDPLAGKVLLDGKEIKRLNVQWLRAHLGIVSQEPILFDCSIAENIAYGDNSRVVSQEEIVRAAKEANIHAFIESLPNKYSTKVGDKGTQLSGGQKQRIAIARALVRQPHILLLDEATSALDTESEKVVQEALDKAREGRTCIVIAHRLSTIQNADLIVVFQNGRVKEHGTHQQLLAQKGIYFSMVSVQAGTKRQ

| Structure (SMILES) | Kb [1] | Kb [2] | chromatographic logP [3] | efflux ratio [4] | OX2R Kb/OX1R Kb [2] |
| --- | --- | --- | --- | --- | --- |
| CC[C@@H](CNc1ccc(Cl)cn1)N(C)C(=O)c1cc(C)ccc1-n1nccn1 [Ex 1 in WO2016/ 034882, reference compound] | 43.2 nM |  |  |  |  |
| CC[C@@H](CNc1ncc(C(F)(F)F)cn1)N(C)C(=O)c1cc(Cl)ccc1-n1nccn1 [Ex 39 in WO2016/ 034882, reference compound] | 81.5 nM |  |  |  |  |
| CC[C@@H](CNc1ccc(C(F)(F)F)cn1)N(C)C(=O)c1cc(Cl)ccc1-n1nccn1 [Ex 42 in WO2016/ 034882, reference compound] | 36.2 nM |  |  |  |  |
| CC[C@@H](CNc1ccc(C(F)(F)F)cn1)N(CC)C(=O)c1nc(C)ccc1-n1nccn1 [Ex 71 in WO2016/ 034882, reference compound] | 27.3 nM | 0.03 nM |  |  |  |
| CC[C@@H](CNc1ncc(C(F)(F)F)cn1)N(CC)C(=O)c1nc(C)ccc1-n1nccn1 [Ex 73 in WO2016/ 034882, reference compound] | 148 nM |  |  |  |  |
| CC[C@@H](CNc1ncc(C(F)(F)F)cn1)N(C)C(=O)c1nc(C)ccc1-c1ncccn1 [Ex 84 in WO2016/ 034882, reference compound] |  | 2.33 nM |  |  |  |
| CC[C@@H](CNc1ncc(C(F)(F)F)cn1)N(C)C(=O)c1c(F)cccc1-n1nccn1 [Ex 91 in WO2016/ 034882, reference compound] |  | 3.96 nM |  |  |  |
| CCN(C(=O)c1c(-n2nccn2)ccc(C)c1F)[C@@H](C)CNc1ncc(C(F)(F)F)cn1 [Example 1] | 21.8 nM | 0.041 nM | 2 to 4 |  |  |
| CCN(C(=O)c1cc(C)ccc1-n1nccn1)[C@@H](C)CNc1ncc(C(F)(F)F)cn1 [Example 2] | 4.14 nM | 0.011 nM | 2 to 4 | < 3 |  |
| CCN(C(=O)c1cc(C)ccc1-n1nccn1)[C@@H](C)CN(C)c1ncc(C(F)(F)F)cn1 [Example 3] | 15.2 nM | 0.02 nM | 2 to 4 | < 3 | 755 |
| CCN(C(=O)c1cc(OC)ccc1-n1nccn1)[C@@H](C)CNc1ncc(C(F)(F)F)cn1 [Example 4] | 14.4 nM | 0.02 nM | 2 to 4 | < 3 |  |
| CCN(C(=O)c1ccc(C)cc1-n1nccn1)[C@@H](C)CNc1ncc(C(F)(F)F)cn1 [Example 5] | 21.1 nM | 0.012 nM | 2 to 4 |  |  |
| CCN(C(=O)c1nc(C)sc1-c1ccccc1)[C@@H](C)CNc1ncc(C(F)(F)F)cn1 [Example 6] | 7.03 nM | 0.013 nM | 2 to 4 | < 3 |  |
| CCN(C(=O)c1ccc(Cl)cc1-n1nccn1)[C@@H](C)CNc1ncc(C(F)(F)F)cn1 [Example 7] | 23.2 nM | 0.025 nM | 2 to 4 | < 3 |  |
| CCN(C(=O)c1nc(C)sc1-c1ccc(F)cc1)[C@@H](C)CNc1ncc(C(F)(F)F)cn1 [Example 8] | 7.92 nM | 0.022 nM | 2 to 4 | < 3 |  |
| CCN(C(=O)c1cc(C)ccc1-n1nccn1)[C@@H](C)CN(C)c1ccc(Cl)cn1 [Example 9] | 4.79 nM | 0.0053 nM |  |  | 909 |
| CCN(C(=O)c1cc(C)ccc1-n1nccn1)[C@@H](C)CNc1ccc(Cl)cn1 [Example 10] | 5.57 nM | 0.014 nM |  |  |  |
| CCN(C(=O)c1cccc(F)c1-c1ncccn1)[C@@H](C)CNc1ccc(C(F)(F)F)cn1 [Example 11] | 3.15 nM | 0.015 nM | 2 to 4 |  |  |
| CCN(C(=O)c1cccc(F)c1-c1ncccn1)[C@@H](C)CNc1ccc(F)c(C(F)(F)F)n1 [Example 12] | 4.15 nM | 0.019 nM | 2 to 4 |  |  |
| CCN(C(=O)c1cc(F)ccc1-c1ncccn1)[C@@H](C)CNc1ncc(C(F)(F)F)cc1F [Example 13] | 5.16 nM | 0.012 nM | 2 to 4 |  |  |
| CCN(C(=O)c1ccc(C)c(C)c1-n1nccn1)[C@@H](C)CNc1ccc(Cl)cn1 [Example 14] | 22.9 nM | 0.023 nM |  | < 3 |  |
| CCN(C(=O)c1cccc(F)c1-n1nccn1)[C@@H](C)CNc1ccc(C(F)(F)F)cn1 [Example 15] | 3.86 nM | 0.0044 nM | 2 to 4 | < 3 |  |
| CCN(C(=O)c1cccc(F)c1-n1nccn1)[C@@H](C)CNc1ccc(Cl)cn1 [Example 17] | 11.4 nM | 0.043 nM |  |  |  |
| CCN(C(=O)c1cccc(F)c1-n1nccn1)[C@@H](C)CNc1ccc(F)c(C(F)(F)F)n1 [Example 18] | 16.3 nM | 0.078 nM | 2 to 4 |  |  |

Reference: US10710984B2, “N-[(Pyrimidinylamino)propanyl]-and N-[(Pyridinylamino)-propanyl]arylcarboxamides” (Boehringer Ingelheim International GmbH, priority 2016, dated 2020)
